Measurements published in patent publication US7709498B2, “Quinoline derivatives as antibacterial agents” (Janssen Pharmaceutica N.V., priority 2005, dated 2010).
Values after ≈ are worked out from the molar mass of the structure shown.

Tests used:
Assay type in all cases: cell-based
[1] = test system: Staphylococcus aureus (ATCC43300); assay: Microtitre plate assay, IC90 determination, STA 43300; settings: 90% inhibitory concentration for bacterial growth, 37° C., 24 hours, resazurin fluorescence
Description: (§1) The bacteria used in this study were grown overnight in flasks containing 100 ml Mueller-Hinton Broth (Becton Dickinson—cat. no. 275730) in sterile de-ionized water, with shaking, at 37° C. Stocks (0.5 ml/tube) were stored at −70° C. until use. Bacteria titrations were performed in microtiter plates to detect the TCID50, in which the TCID50 represents the dilution that gives rise to bacterial growth in 50% of inoculated cultures.
(§2) In general, an inoculum level of approximately 100 TCID50 was used for susceptibility testing.
(§3) Flat-bottom, sterile 96-well plastic microtiter plates were filled with 180 μl of sterile deionized water, supplemented with 0.25% BSA. Subsequently, stock solutions (7.8× final test concentration) of compounds were added in 45 μl volumes in column 2. Serial five-fold dilutions (45 μl in 180 μl) were made directly in the microtiter plates from column 2 to reach column 11. Untreated control samples with (column 1) and without (column 12) inoculum were included in each microtiter plate. Depending on the bacteria type, approximately 10 to 60 CFU per well of bacteria inoculum (100 TCID50), in a volume of 100 μl in 2.8× Mueller-Hinton broth medium, was added to the rows A to H, except column 12. The same volume of broth medium without inoculum was added to column 12 in row A to H. The cultures were incubated at 37° C. for 24 hours under a normal atmosphere (incubator with open air valve and continuous ventilation). At the end of incubation, one day after inoculation, the bacterial growth was quantitated fluorometrically. Therefore resazurin (0.6 mg/ml) was added in a volume of 20 μl to all wells 3 hours after inoculation, and the plates were re-incubated overnight. A change in colour from blue to pink indicated the growth of bacteria. The fluorescence was read in a computer-controlled fluorometer (Cytofluor Biosearch) at an excitation wavelength of 530 nm and an emission wavelength of 590 nm. The % growth inhibition achieved by the compounds was calculated according to standard methods. The IC90 (expressed in μg/ml) was defined as the 90% inhibitory concentration for bacterial growth.
(§4) BSU 3639 means Bacillus subtilis (ATCC43639); ECO 25922 means Escherichia coli (ATCC25922); EFA 14506 means Enterococcus faecalis (ATCC14506); EFA 29212 means Enterococcus faecalis (ATCC29212); LMO 49594 means Listeria monocytogenes (ATCC49594); PAE 27853 means Pseudomonas aeruginosa (ATCC27853); SMU 33402 means Streptococcus mutans (ATCC33402); SPN 6305 means Streptococcus pneumoniae (ATCC6305); SPY 8668 means Streptococcus pyogens (ATCC8668); STA 43300 means Staphylococcus aureus (ATCC43300); STA 25923 means Staphylococcus aureus (ATCC25923); STA 29213 means Staphylococcus aureus (ATCC29213); STA RMETH means methicilline resistant Staphylococcus aureus (MRSA) (a clinical isolate from the University of Antwerp). ATCC means American type tissue culture.

[2] = test system: Bacillus subtilis (ATCC43639); assay: Microtitre plate assay, IC90 determination, BSU 43639; settings: 90% inhibitory concentration for bacterial growth, 37° C., resazurin fluorescence; for IC90: Bacillus subtilis, ATCC43639, 24 h, read-out: IC90 (μg/ml) BSU 43639
Description: as §1, §2, §3, §4

[3] = test system: Pseudomonas aeruginosa (ATCC27853); assay: Microtitre plate assay, IC90 determination, PAE 27853; settings: 90% inhibitory concentration for bacterial growth, 37° C., resazurin fluorescence; for IC90 (μg/ml) PAE 27853: 24 hours
Description: as §1, §2, §3, §4

[4] = test system: Listeria monocytogenes (ATCC49594); assay: Microtitre plate assay, IC90 determination, LMO 49594; settings: 90% inhibitory concentration for bacterial growth, 37° C., resazurin fluorescence; for IC90 (μg/ml) LMO 49594: 24 hours
Description: as §1, §2, §3, §4

[5] = test system: Streptococcus pyogens (ATCC8668); assay: Microtitre plate assay, IC90 determination, SPY 8668; settings: 90% inhibitory concentration for bacterial growth, 37° C., resazurin fluorescence; for IC90 (μg/ml) SPY 8668: 24 hours
Description: as §1, §2, §3, §4

[6] = test system: Enterococcus faecalis (ATCC14506); assay: Microtitre plate assay, IC90 determination, EFA 14506; settings: 90% inhibitory concentration for bacterial growth, 37° C., resazurin fluorescence; for IC90: Enterococcus faecalis, ATCC14506, 24 h, read-out: IC90 (μg/ml) EFA 14506
Description: as §1, §2, §3, §4

[7] = test system: Streptococcus pneumoniae (ATCC6305); assay: Microtitre plate assay, IC90 determination, SPN 6305; settings: 90% inhibitory concentration for bacterial growth, 37° C., resazurin fluorescence; for IC90 (μg/ml) SPN 6305: 24 hours; for IC90: Streptococcus pneumoniae, ATCC6305, 24 h, read-out: IC90 (μg/ml) SPN 6305
Description: as §1, §2, §3, §4

[8] = test system: Enterococcus faecalis (ATCC29212); assay: Microtitre plate assay, IC90 determination, EFA 29212; settings: 90% inhibitory concentration for bacterial growth, 37° C., resazurin fluorescence; for IC90 (μg/ml) EFA 29212: 24 hours; for IC90: Enterococcus faecalis, ATCC29212, 24 h, read-out: IC90 (μg/ml) EFA 29212
Description: as §1, §2, §3, §4

[9] = test system: Streptococcus mutans (ATCC33402); assay: Microtitre plate assay, IC90 determination, SMU 33402; settings: 90% inhibitory concentration for bacterial growth, 37° C., resazurin fluorescence; for IC90 (μg/ml) SMU 33402: 24 hours
Description: as §1, §2, §3, §4

[10] = test system: methicilline resistant Staphylococcus aureus (MRSA) (a clinical isolate from the University of Antwerp); assay: Microtitre plate assay, IC90 determination, STA RMETH; settings: 90% inhibitory concentration for bacterial growth, 37° C., resazurin fluorescence; for IC90: Staphylococcus aureus, MRSA, 24 h, read-out: IC90 (μg/ml) STA RMETH
Description: as §1, §2, §3, §4

[11] = test system: Escherichia coli (ATCC25922); assay: Microtitre plate assay, IC90 determination, ECO 25922; settings: 90% inhibitory concentration for bacterial growth, 37° C., 24 hours, resazurin fluorescence, read-out: IC90 (μg/ml) ECO 25922
Description: as §1, §2
(§5) Flat-bottom, sterile 96-well plastic microtiter plates were filled with 180 μl of sterile deionized water, supplemented with 0.25% BSA. Subsequently, stock solutions (7.8× final test concentration) of compounds were added in 45 μl volumes in column 2. Serial five-fold dilutions (45 μl in 180 μl) were made directly in the microtiter plates from column 2 to reach column 11. Untreated control samples with (column 1) and without (column 12) inoculum were included in each microtiter plate. […] At the end of incubation, one day after inoculation, the bacterial growth was quantitated fluorometrically. […] The fluorescence was read in a computer-controlled fluorometer (Cytofluor Biosearch) at an excitation wavelength of 530 nm and an emission wavelength of 590 nm. The % growth inhibition achieved by the compounds was calculated according to standard methods. […]

[12] = test system: Staphylococcus aureus (ATCC25923); assay: Microtitre plate assay, IC90 determination, STA 25923; settings: 90% inhibitory concentration for bacterial growth, 37° C., resazurin fluorescence; for IC90: Staphylococcus aureus, ATCC25923, 24 h, read-out: IC90 (μg/ml) STA 25923
Description: as §1, §2, §3, §4

[13] = test system: Staphylococcus aureus (ATCC29213); assay: Microtitre plate assay, IC90 determination, STA 29213; settings: 90% inhibitory concentration for bacterial growth, 37° C., 24 hours, resazurin fluorescence, read-out: IC90 (μg/ml) STA 29213
Description: as §1, §2, §5

Structure (SMILES) | IC90 (μg/ml) STA 43300 [1] | IC90 (μg/ml) LMO 49594 [4] | IC90 (μg/ml) SPY 8668 [5] | IC90 (μg/ml) SPN 6305 [7] | IC90 (μg/ml) SMU 33402 [9] | IC90 [2] | IC90 [6] | further results
COc1nc2ccc(Br)cc2cc1C(c1ccccc1)C(O)(CCN(C)C)c1ccc2ccccc2c1 (stereo not shown) [Compound 45] | – | – | – | – | – | 11.1 µg/mL (≈ 20 µM) | 12.4 µg/mL (≈ 22.3 µM) | –
COc1nc2ccc(Br)cc2cc1C(c1ccccc1)C(O)(CCn1ccnc1)c1ccccc1 (stereo not shown) [Compound 49] | – | 10.5 µg/mL (≈ 19.9 µM) | 10.5 µg/mL (≈ 19.9 µM) | – | – | – | – | IC90 [10]: 11.8 µg/mL (≈ 22.3 µM); IC90 [7]: 13.3 µg/mL (≈ 25.2 µM); IC90 [12]: 5.9 µg/mL (≈ 11.2 µM); IC90 ([9]; Streptococcus mutans, ATCC33402, 24 h, read-out: IC90 (μg/ml) SMU 33402): 10.5 µg/mL (≈ 19.9 µM)
COc1nc2ccc(Br)cc2cc1C(c1ccccc1)C(O)(CCn1ccnc1)c1ccccc1 (stereo not shown) [Compound 50] | – | 23.6 µg/mL (≈ 44.7 µM) | 26.5 µg/mL (≈ 50.1 µM) | – | 21.0 µg/mL (≈ 39.7 µM) | 10.5 µg/mL (≈ 19.9 µM) | – | IC90 (μg/ml) STA RMETH ([10]; 24 hours): 10.5 µg/mL (≈ 19.9 µM); IC90 [13]: 26.5 µg/mL (≈ 50.1 µM); IC90 [8]: 10.5 µg/mL (≈ 19.9 µM)

Now from value to compound, other results behind:

IC90 (μg/ml) STA 43300 [1] | IC90 (μg/ml) LMO 49594 [4] | IC90 (μg/ml) SPY 8668 [5] | IC90 (μg/ml) SPN 6305 [7] | IC90 (μg/ml) SMU 33402 [9] | IC90 [2] | IC90 [6] | Structure (SMILES) | further results
5.0 µg/mL (≈ 9 µM) | 2.5 µg/mL (≈ 4.5 µM) | 2.2 µg/mL (≈ 3.96 µM) | 6.2 µg/mL (≈ 11.2 µM) | 12.4 µg/mL (≈ 22.3 µM) | – | – | COc1nc2ccc(Br)cc2cc1C(c1ccccc1)C(O)(CCN(C)C)c1cccc2ccccc12 (stereo not shown) [Compound 15] | IC90 (μg/ml) BSU 43639 ([2]; 24 hours): 24.8 µg/mL (≈ 44.6 µM); IC90 (μg/ml) PAE 27853 [3]: 12.4 µg/mL (≈ 22.3 µM); IC90 (μg/ml) EFA 14506 ([6]; 24 hours): 24.8 µg/mL (≈ 44.6 µM); IC90 (μg/ml) EFA 29212 [8]: 5.0 µg/mL (≈ 9 µM)
13.1 µg/mL (≈ 25.1 µM) | – | – | 13.1 µg/mL (≈ 25.1 µM) | 4.6 µg/mL (≈ 8.82 µM) | – | – | CSc1nc2ccc(Br)cc2cc1C(c1ccccc1)C(O)(CCN(C)C)c1ccccc1 (stereo not shown) [Compound 32] | IC90 [10]: 13.1 µg/mL (≈ 25.1 µM); IC90 ([3]; Pseudomonas aeruginosa, ATCC27853, 24 h, read-out: IC90 (μg/ml) PAE 27853): 10.4 µg/mL (≈ 19.9 µM); IC90 ([4]; Listeria monocytogenes, ATCC49594, 24 h, read-out: IC90 (μg/ml) LMO 49594): 4.6 µg/mL (≈ 8.82 µM); IC90 ([5]; Streptococcus, ATCC8668, 24 h, read-out: IC90 (μg/ml) SPY 8668): 4.6 µg/mL (≈ 8.82 µM); IC90 [11]: 11.7 µg/mL (≈ 22.4 µM); IC90 [8]: 4.6 µg/mL (≈ 8.82 µM); IC90 [12]: 9.3 µg/mL (≈ 17.8 µM)
5.9 µg/mL (≈ 11.3 µM) | 2.3 µg/mL (≈ 4.41 µM) | 2.6 µg/mL (≈ 4.99 µM) | 5.9 µg/mL (≈ 11.3 µM) | 10.4 µg/mL (≈ 19.9 µM) | 10.4 µg/mL (≈ 19.9 µM) | 11.7 µg/mL (≈ 22.4 µM) | CSc1nc2ccc(Br)cc2cc1C(c1ccccc1)C(O)(CCN(C)C)c1ccccc1 (stereo not shown) [Compound 33] | IC90 (μg/ml) PAE 27853 [3]: 11.7 µg/mL (≈ 22.4 µM); IC90 (μg/ml) EFA 29212 [8]: 4.6 µg/mL (≈ 8.82 µM); IC90 (μg/ml) STA 25923 ([12]; 24 hours): 13.1 µg/mL (≈ 25.1 µM)
– | – | – | – | – | – | 23.7 µg/mL (≈ 39.8 µM) | COc1nc2ccc(Br)cc2cc1C(c1ccccc1)C(O)(CCN1CCCCC1)c1cccc2ccccc12 (stereo not shown) [Compound 145] | IC90 [7]: 9.4 µg/mL (≈ 15.8 µM)
